{"source": "paper PMC4428838", "about": "“Optimization of Invasion-Specific Effects of Betulin Derivatives on Prostate Cancer Cells through Lead Development” (PLoS ONE, 2015)", "type_in_all_cases": "cell-based", "key": {"PC-3 cells": {"test_system": "PC-3 cells", "assay": "Primary 3D screen in Matrigel ECM, morphometric image analysis (AMIDA) of invasion, growth and cell death", "conditions": "PC-3 in 3D Matrigel; paclitaxel at 30 and 100 nM", "method": "Three standard of care compounds widely used against PrCa were added as controls; namely, the androgen receptor antagonist enzalutamide (MDV3100), the C17α-hydroxylase/C17,20-lyase inhibitor abiraterone (Zytiga), and the classic mitotic inhibitor paclitaxel. Treatments started at day 4, when well-differentiated round acini were established.\nThe live 3D cell cultures were then stained with reactive dyes Calcein AM to detect living, and ethidium homodimer to detect dead cells. Images (Fig 4A) were acquired with confocal microscope and image data were analyzed with the AMIDA software. The principles of morphometric image analysis are briefly outlined in S2 Fig.\nFig 4 Primary 3D screen. PC-3 cells were cultured in 3D Matrigel ECM for 4 days and treated for 6 days with 25 betulin derivatives (from 2D high throughput screens), DMSO/vehicle control, and three reference compounds. A) Representative maximum intensity projections of confocal microscope stack images for selected compound treatments at 300 nM concentration (5× objective, scale 100 μm). B) Three graphs showing the relative impact on three morphometric parameters for 7 betulin derivatives, DMSO control, and one control compound (paclitaxel). […] C) Hierarchical clustering was done using three morphological parameters derived from PC3 organoids: spheroid size (area), complexity and the number of dead cells. D) Wound healing curves of the two betulin derivatives 4 and 20, highlighting the 50% cut-off level (orange dashed line).\nNext, statistical analyses were performed to interpret the complex image data (Fig 4B and 4C). For simplicity, we focused on only three, basic morphologic parameters from the multiparametric AMIDA readout (Fig 4B): 1) Area (indicating growth of organoids), 2) structural Complexity (as a measure of the intensity of invasion), and 3) Relative Area of dead cells within organoids (red signal as a measure of cytoxicity or apoptosis). Area (Size of organoids; Fig 4B, upper panel) was measured as the number of pixels within a segmented structure. […] Shape Complexity (Fig 4B, middle panel) was obtained using the structure size (area) and perimeter (number of border pixels). The more regular the shape of an organoid, the closer it is to a perfect circle, thus minimizing the perimeter relative to object size. […] Deviations from this average (residuals) were interpreted as a measure for the shape complexity of organoids. As a logical lower limit for this measure (represented by a perfect circle), we adjusted the intercept (height level) of the regression line to render all returned residuals as positive numbers.\nAll 3D cultures were done in growth factor-free Matrigel Basement-membrane Matrix (Corning Inc., New York, NY, USA) using 96-well Angiogenesis μ-plates (ibidi GmbH, Munich, Germany) as described before.[38] “Sandwich” assays in short: bottom wells of cooled Angiogenesis plates were filled with 10 μL 4 mg/mL Matrigel, centrifuged for 20 min 200 g and incubated at 37°C temperature for approximately 30–60 min or until the ECM had polymerized. 1,000–1,500 cells were mixed in 2 mg/mL ECM-medium, and 20 μL of cell suspension was added in each well. The plates were centrifuged for 10 min at 100 g, or until the cells had settled on top of the lower ECM. Finally, the outer wells and side reservoirs were filled with water for humidification, and the culture plates placed into the incubator for 3–4 h or overnight. The following day, 60 μL of cell culture medium were added; refreshed every third day by carefully aspirating the medium."}, "LNCaP organoids": {"test_system": "LNCaP organoids", "assay": "Secondary 3D screen (spheroid size, complexity, cell death)", "conditions": "dendrogram clusters", "from_the_text": "(§1) Next, the 25 selected betulin derivatives depicted in Figs 1–3 including control compounds were again thoroughly tested across the same panel of prostate-derived cell lines already used in the preliminary, 2D high-throughput screen. The resulting dendrograms were either generated separately for each cell line (S4 Fig), combined into a single dendrogram (Fig 5A), or shown as reduced organoid sizes (area; Fig 5B).\n(§2) Fig 5 Secondary 3D screens. Experimental betulin derivatives and control compounds were tested across a panel of prostate cancer lines (LNCaP, LAPC-4) and non-transformed, prostate epithelial cells (EP156T) in 3D culture. A) The dendrogram is based on three main morphological parameters and combines all data from primary and secondary 3D screens. […] B) Boxplots showing the impact of selected compounds on spheroid size (Area). Data scaling: as described in Fig 4 C) Effects of all betulin derivatives and control compounds on cell death (number of dead cells).\n(§3) All 3D cultures were done in growth factor-free Matrigel Basement-membrane Matrix (Corning Inc., New York, NY, USA) using 96-well Angiogenesis μ-plates (ibidi GmbH, Munich, Germany) as described before.[38] “Sandwich” assays in short: bottom wells of cooled Angiogenesis plates were filled with 10 μL 4 mg/mL Matrigel, centrifuged for 20 min 200 g and incubated at 37°C temperature for approximately 30–60 min or until the ECM had polymerized. 1,000–1,500 cells were mixed in 2 mg/mL ECM-medium, and 20 μL of cell suspension was added in each well. The plates were centrifuged for 10 min at 100 g, or until the cells had settled on top of the lower ECM. Finally, the outer wells and side reservoirs were filled with water for humidification, and the culture plates placed into the incubator for 3–4 h or overnight. The following day, 60 μL of cell culture medium were added; refreshed every third day by carefully aspirating the medium. This “sandwich” setting allows almost unifocal alignment of cells and 3D structures in a single optical plane, thus reducing the time required for confocal stack imaging.\n(§4) All control compounds were purchased from Selleck (Munich, Germany), except for staurosporine (Sigma-Aldrich, St. Louis, MO, USA) and Y-27632 (Tocris, Bristol, UK) and dissolved in dimethyl sulfoxide (DMSO) as a vehicle at 10 mM. In the primary and secondary 3D screens, experimental and control compound exposures were performed in triplicates. Four concentrations for each compound were applied (0.03, 0.1, 0.3 and 1 μM). Compound treatments were initiated four days after cell embedding, and continued for six days after which spheroids were stained and imaged.\n(§5) Supplementary file pone.0126111.s004.eps: S4 Fig Secondary screens. Dendrograms for A) LNCaP, B) LAPC-4, and C) Ep156T betulin screens in 3D culture have been constructed using three main read-outs: spheroid size, spheroid complexity, and cell death. […] (EPS) Click here for additional data file."}, "LAPC-4": {"test_system": "LAPC-4", "assay": "Secondary 3D screen (spheroid size, complexity, cell death)", "conditions": "yellow and red clusters", "from_the_text": "as §1, §2, §3, §4, §5"}}, "data": [{"smiles": "CNC(=O)c1ccc(N2C(=S)N(c3ccc(C#N)c(C(F)(F)F)c3)C(=O)C2(C)C)cc1F", "note": "[enzalutamide, reference compound]", "values": [{"measurement": "effect on morphometric measures (area, complexity, dead cells)", "setting": "PC-3 cells", "result": "no noticeable effect"}, {"measurement": "among the effective treatments in 3D LNCaP organoids", "setting": "LNCaP organoids", "result": "among the effective treatments"}, {"measurement": "efficacy in 3D LAPC-4 culture (dendrogram clusters)", "setting": "LAPC-4", "result": "efficacy of all positive controls"}]}]}
